The target in one assay is human 5-HT7a receptor (Homo sapiens (Human), UniProt P34969). The assay can be described thus: Radioligand binding competition, filtration binding assay, 5-HT7a. As to conditions: affinity on 5-HT7 receptor, table of new compounds. The procedure:
(§1) FIG. 14: Testing of 8 molecules for radioligand binding competition activity on recombinant human 5-HT1A, 5-HT2A, 5-HT2Cedited, 5-HT6, 5-HT7 and D2(long) receptors using filtration binding assays.
(§2) Radioligand Binding experiments were conducted with Epics Therapeutics membrane preparations. Receptor accession numbers, cellular background and reference compounds are shown in this table.
Reference values thus obtained for the test were compared to historical values obtained from the same receptor and used to validate the experimental session. For replicate determinations, the maximum variability tolerated in the test was of +/−20% around the average of the replicates.
(§3) Dose-response data from test compounds were analyzed with XLfit (IDBS) software using nonlinear regression applied to a sigmoidal dose-response model and the following equation: • XL Fit fit Model 203: 4 Parameter Logistic Model • A: Bottom • B: TOP • C: LogEC50 • D: Hill

Another assay has as its target human 5-HT2A receptor (Homo sapiens (Human), UniProt P28223). As to the kind of experiment: Radioligand binding competition, 5-HT2A. As to conditions: selectivity panel; for IC50: read-out: RLB 5-HT2A IC50; for Ki: read-out: RLB 5-HT2A Ki. The procedure: as §1, §2
(§4) The new compounds have been tested by radioligand binding competition activity at the human 5-HT1A (FAST-0500B), 5-HT2A (FAST-0505B), 5-HT2Cedited (FAST-0507B), 5-HT6 (FAST-0509B), 5-HT7a (FAST-05111B) and D2(long) (FAST-0101B) receptors at seven (7) concentrations, in duplicate. […] Reference values thus obtained for the test were compared to historical values obtained from the same receptor and used to validate the experimental session. For replicate determinations, the maximum variability tolerated in the test was of +/−20% around the average of the replicates.
as §3

Assay [1] has as its target human 5-HT2Cedited receptor (Homo sapiens, UniProt P28335). The assay can be described thus: Radioligand binding competition, 5-HT2Cedited. How it is done:
as §1, §2, §4, §3

The next assay addresses human 5-HT1A receptor (Homo sapiens (Human), UniProt P08908). The assay can be described thus: Radioligand binding competition, 5-HT1A. As to conditions: selectivity panel; for IC50: read-out: RLB 5-HT1A IC50; for Ki: read-out: RLB 5-HT1A Ki. How it is done: as §1, §2, §4, §3
Another assay concerns mice. As to the kind of experiment: Tail immersion test (50° C.). Particulars: administrated alone, i.p. It is filed as in vivo. How it is done:
(A) Experimental protocol summary used. (B) Mice were subcutaneously injected with two different doses of the 5-HT7 receptor agonist Serodolin, 1 mg/kg or 5 mg/kg and 10 min later their tail extremity was immersed in water heated to 50 degrees. […] The effect of injections (Serodolin or E55888) was evaluated at TO, 30 min and 60 min corresponding to 10, 40 and 70 min after compound injections. […] Their tail extremity was immersed in water heated to 50 degrees at TO (E) or 30 min later (F) corresponding to 10 and 40 min after agonist injections. […] Statistical analysis was done using Tukey's multiple comparison test.
Tail immersion test. Nociception was assessed with the tail immersion test, 10 min and 40 min after E55888 (5 mg/kg) or Serodolin (5 mg/kg) tail subcutaneous injections, in the water heated to 50° C. Vehicle (20% DMSO, 5% Tween 80 diluted in PBS solution) was used as a control group. These different groups were intraperitoneally injected (+) or not (−) with the 5-HT7R antagonist SB269960 (5 mg/kg) 10 min before the ligand injection. The tail withdrawal latency (s) was measured for each animal.

Here are results for 21 molecules from patent US20240199555A1, “APPLICATIONS OF BIASED LIGANDS OF THE SEROTONIN 5-HT7 RECEPTOR FOR THE TREATMENT OF PAIN, MULTIPLE SCLEROSIS AND THE CONTROL OF THERMOREGULATION” (Centre National de la Recherche Scientifique, priority 2021, published 2024).

Where two headings read alike, the source gives them in different places.

Sequence of human 5-HT2A receptor (P28223 whole entry): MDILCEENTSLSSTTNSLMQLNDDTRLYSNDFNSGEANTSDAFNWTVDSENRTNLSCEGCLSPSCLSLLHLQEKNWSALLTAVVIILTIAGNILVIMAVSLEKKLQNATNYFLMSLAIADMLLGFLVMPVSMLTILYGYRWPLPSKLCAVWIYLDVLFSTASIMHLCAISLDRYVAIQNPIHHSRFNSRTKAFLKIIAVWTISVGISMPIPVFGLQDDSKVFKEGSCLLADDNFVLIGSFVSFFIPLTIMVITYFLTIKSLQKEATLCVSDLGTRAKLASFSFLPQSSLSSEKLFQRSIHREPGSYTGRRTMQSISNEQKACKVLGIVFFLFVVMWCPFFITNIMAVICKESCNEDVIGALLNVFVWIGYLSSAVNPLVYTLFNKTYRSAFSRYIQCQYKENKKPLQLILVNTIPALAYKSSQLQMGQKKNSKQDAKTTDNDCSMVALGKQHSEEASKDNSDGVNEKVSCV
Sequence of human 5-HT2Cedited receptor (P28335 33-458 limits assumed): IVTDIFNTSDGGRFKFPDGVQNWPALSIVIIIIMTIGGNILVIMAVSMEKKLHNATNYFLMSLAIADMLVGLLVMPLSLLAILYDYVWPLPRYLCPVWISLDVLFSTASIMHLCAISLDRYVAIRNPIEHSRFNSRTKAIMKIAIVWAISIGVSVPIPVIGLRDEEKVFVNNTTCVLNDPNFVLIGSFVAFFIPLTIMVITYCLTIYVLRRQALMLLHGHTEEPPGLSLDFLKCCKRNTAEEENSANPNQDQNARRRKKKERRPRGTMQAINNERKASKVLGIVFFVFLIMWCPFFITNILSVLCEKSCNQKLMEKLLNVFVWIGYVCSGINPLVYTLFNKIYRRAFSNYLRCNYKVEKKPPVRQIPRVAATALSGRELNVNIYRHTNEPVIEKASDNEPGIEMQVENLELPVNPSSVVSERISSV
Sequence of human 5-HT7a receptor (P34969 other isoform, or with tags, fused parts or gaps): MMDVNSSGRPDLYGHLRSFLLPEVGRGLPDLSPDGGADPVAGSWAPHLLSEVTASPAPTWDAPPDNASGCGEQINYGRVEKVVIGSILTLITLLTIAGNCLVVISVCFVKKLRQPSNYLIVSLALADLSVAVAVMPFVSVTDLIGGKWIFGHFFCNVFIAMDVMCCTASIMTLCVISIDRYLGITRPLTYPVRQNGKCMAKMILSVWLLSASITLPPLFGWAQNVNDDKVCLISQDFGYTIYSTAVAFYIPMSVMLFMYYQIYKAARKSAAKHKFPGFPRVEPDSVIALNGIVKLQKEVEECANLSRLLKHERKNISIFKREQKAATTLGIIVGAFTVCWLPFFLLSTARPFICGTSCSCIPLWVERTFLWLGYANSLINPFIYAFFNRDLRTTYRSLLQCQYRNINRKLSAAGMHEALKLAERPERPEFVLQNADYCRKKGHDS
Sequence of human 5-HT1A receptor (P08908 whole entry): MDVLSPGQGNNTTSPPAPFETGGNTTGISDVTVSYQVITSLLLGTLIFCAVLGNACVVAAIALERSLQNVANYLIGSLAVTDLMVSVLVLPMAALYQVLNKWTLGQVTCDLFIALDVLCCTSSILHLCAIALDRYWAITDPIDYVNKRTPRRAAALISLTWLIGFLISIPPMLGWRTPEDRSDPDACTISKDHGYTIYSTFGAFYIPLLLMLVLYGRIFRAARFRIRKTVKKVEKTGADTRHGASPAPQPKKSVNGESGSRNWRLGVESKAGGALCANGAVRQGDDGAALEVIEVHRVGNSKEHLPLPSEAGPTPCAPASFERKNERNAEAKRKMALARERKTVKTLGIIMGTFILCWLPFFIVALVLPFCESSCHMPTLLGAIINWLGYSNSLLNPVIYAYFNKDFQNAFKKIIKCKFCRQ

`O=c1[nH]c2ccccc2n1CCCCCN1CCN(c2ccccc2O)CC1` [JLB010]: at human 5-HT7a receptor, the half-inhibitory concentration (IC50) – broadly, the midpoint of a concentration-inhibition curve – was determined as 7.99 nM and the affinity, expressed as Ki, was 5.61 nM.

As to `O=c1[nH]c2ccccc2n1CN1CCN(c2ccccc2C(F)(F)F)CC1` [JLB011], at human 5-HT7a receptor, the 50% inhibitory concentration (IC50) worked out at 4.74 nM; the inhibition constant (Ki) (commonly the dissociation constant of the complex between target and ligand, obtained from inhibition or displacement) came out at 3.33 nM.

On to `O=c1[nH]c2ccccc2n1CCCCCN1CCN(c2ccccn2)CC1` [JLB012], for which the IC50 came out at 44.2 nM on human 5-HT2A receptor, 5250 nM in assay [1] (read-out: RLB 5-HT2Cedited IC50; selectivity panel), 41.3 nM on human 5-HT1A receptor and 1.69 nM at human 5-HT7a receptor. Besides, the Ki at human 5-HT2A receptor came to 7.3 nM; in assay [1] (read-out: RLB 5-HT2Cedited Ki; selectivity panel), 863 nM; on human 5-HT1A receptor, 20.7 nM; on human 5-HT7a receptor, 1.18 nM.

Take `O=c1[nH]c2ccccc2n1CCCCCN1CCN(c2ncccn2)CC1` [JLB013]: on human 5-HT7a receptor, the IC50 amounted to 9.68 nM and the Ki worked out at 6.8 nM.

At human 5-HT7a receptor, `O=c1[nH]c2ccccc2n1CCCCCN1CCN(c2ccccc2F)CC1` [JLB014] displayed a half-maximal inhibitory concentration (IC50) of 3.29 nM and an inhibitory constant (Ki) of 2.31 nM.

At human 5-HT7a receptor, `O=c1[nH]c2ccccc2n1CCCCCN1CCN(c2ccc(F)cc2)CC1` [JLB015] showed a 50% inhibitory concentration (IC50) of 4.39 nM and a Ki of 3.09 nM.

Take `O=c1[nH]c2ccccc2n1CCCCCN1CCN(c2ccc(C(F)(F)F)cc2)CC1` [JLB017]: on human 5-HT7a receptor, the IC50 worked out at 7.19 nM and the Ki was determined as 5.05 nM.

On to `O=c1[nH]c2ccccc2n1CCCCCN1CCN(c2ccncc2)CC1` [JLB020], for which, on human 5-HT7a receptor, the IC50 worked out at 260 nM and the Ki was determined as 182 nM.

As for `O=c1[nH]c2ccccc2n1CCCCCN1CCN(c2ccncn2)CC1` [JLB022], at human 5-HT7a receptor, the IC50 worked out at 136 nM and the Ki is 95.5 nM.

On human 5-HT7a receptor, `O=c1[nH]c2ccccc2n1CCCCCN1CCN(c2ncncn2)CC1` [JLB023] had an IC50 of 370 nM and a Ki of 260 nM.

As to `O=c1[nH]c2ccccc2n1CCOCCN1CCN(c2ccc(F)cc2)CC1` [JLB048], on human 5-HT7a receptor, the IC50 was 19.1 nM and the inhibitory constant (Ki) was 13.4 nM.

Consider `O=c1[nH]c2ccccc2n1CCCCCN1C[C@@H]2CN(c3ccc(F)cc3)C[C@@H]2C1` [JLB061], for which, at human 5-HT7a receptor, the half-inhibitory concentration (IC50) worked out at 5.97 nM and affinity was put at a Ki of 4.19 nM.

On human 5-HT7a receptor, `O=c1[nH]c2ccccc2n1CCCCCN1CC2(C1)CN(c1ccc(F)cc1)C2` [JLB088, 1-(5-(6-(4-fluorophenyl)-2,6-diazaspiro[3.3]heptan-2-yl)pentyl)-1H-benzo[d]imidazol-2(3H)-one] yielded an IC50 of 174 nM and a Ki of 122 nM.

Turning to `CC(C)(CCN1CCN(c2ccc(F)cc2)CC1)CCn1c(=O)[nH]c2ccccc21` [JLB094], the IC50 was 6.23 nM at human 5-HT2A receptor, 1100 nM in assay [1] (selectivity panel; read-out: RLB 5-HT2Cedited IC50), 167 nM at human 5-HT1A receptor and 2.7 nM at human 5-HT7a receptor. Besides, the Ki on human 5-HT2A receptor stood at 1.02 nM; in assay [1] (selectivity panel; read-out: RLB 5-HT2Cedited Ki), 181 nM; on human 5-HT1A receptor it was 83.6 nM; at human 5-HT7a receptor, 1.9 nM.

For the molecule `O=c1[nH]ccn1CCCCCN1CCN(c2ccc(F)cc2)CC1` [JLB102, 1-(5-(4-(4-fluorophenyl)piperazin-1-yl)pentyl)-1H-imidazol-2(3H)-one], on human 5-HT7a receptor, the IC50 worked out at 17 nM and the Ki is 11.9 nM.

In the case of `O=c1[nH]c2ccccc2n1CCCCCN1CCCN(c2ccccn2)CC1` [JLB118, 1-(5-(4-(pyridin-2-yl)-1,4-diazepan-1-yl)pentyl)-1H-benzo[d]imidazol-2(3H)-one], on human 5-HT7a receptor, the 50% inhibitory concentration (IC50) was 69.7 nM and the inhibition constant Ki amounted to 48.9 nM.

At human 5-HT7a receptor, `Cc1ccc(N2CCCN(CCCCCn3c(=O)[nH]c4ccccc43)CC2)cc1` [JLB119, 1-(5-(4-(p-tolyl)-1,4-diazepan-1-yl)pentyl)-1H-benzo[d]imidazol-2(3H)-one] registered an IC50 of 24.2 nM and a Ki of 17 nM.

Take `Cc1ccc(N2CC3(CN(CCCCCn4c(=O)[nH]c5ccccc54)C3)C2)cc1` [JLB137, 1-(5-(6-(p-tolyl)-2,6-diazaspiro[3.3]heptan-2-yl)pentyl)-1H-benzo[d]imidazol-2(3H)-one]: at human 5-HT7a receptor, the half-maximal inhibitory concentration (IC50) was 687 nM and the affinity, expressed as Ki, was 482 nM.

As to `O=c1[nH]c2ccccc2n1CCCCCN1CC2(C1)CN(c1ccccn1)C2` [JLB138, 1-(5-(6-(pyridin-2-yl)-2,6-diazaspiro[3.3]heptan-2-yl)pentyl)-1H-benzo[d]imidazol-2(3H)-one], at human 5-HT7a receptor, the IC50 was 5070 nM and the Ki was found to be 3560 nM.

Turning to `O=c1[nH]c2ccccc2n1CCCCCN1CCN(c2ccc(O)cc2)CC1` [MOA43], on human 5-HT7a receptor, the IC50 was determined as 1.95 nM and affinity was put at a Ki of 1.37 nM.

As for `CC1CCN(CC[C@H]2CCCN2S(=O)(=O)c2cccc(O)c2)CC1` [SB269970, reference compound], the “acute thermal nociception, antagonist administrated alone” value with mice was “did not exert any significant effect on acute thermal nociception”.
